Measured values reported in ChEMBL document CHEMBL3351988, “Synthesis and biological evaluation of novel 6-chloro-quinazolin derivatives as potential antitumor agents” (Eur J Med Chem, 2014).
Structures can show the parent of a compound that is named as a salt. The source made the active and inactive calls. The rule behind the calls is not given here.

Key:
MGC-803 [1] = test: Growth inhibition of human MGC803 cells at 10 uM after 72 hrs by MTT assay; assay type: functional; details: MGC-803, 72 h, read-out: GI
Bcap37 [2] = test: Growth inhibition of human Bcap37 cells at 10 uM after 72 hrs by MTT assay; assay type: functional; details: Bcap37, 72 h, read-out: GI
[3] = Growth inhibition of human PC3 cells at 10 uM after 72 hrs by MTT assay; assay type: functional; details: PC-3, 72 h, read-out: GI
MGC-803 [4] = test: Growth inhibition of human MGC803 cells after 72 hrs by MTT assay; assay type: functional, cell-based; details: MGC-803, 72 h
Bcap37 [5] = test: Growth inhibition of human Bcap37 cells after 72 hrs by MTT assay; assay type: functional, cell-based; details: Bcap37, 72 h
[6] = Growth inhibition of human PC3 cells after 72 hrs by MTT assay; assay type: functional, cell-based; details: PC-3, 72 h
Bcap37 [7] = test: Induction of apoptosis in human Bcap37 cells assessed as cell volume reduction at 1 to 10 uM after 12 hrs by AO/EB staining based fluorescence microscopy; assay type: functional
MGC-803 [8] = test: Induction of apoptosis in human MGC803 cells assessed as cell volume reduction at 1 to 10 uM after 12 hrs by AO/EB staining based fluorescence microscopy; assay type: functional
Bcap37 [9] = test: Induction of apoptosis in human Bcap37 cells assessed as chromatin condensation at 1 to 10 uM after 12 hrs by AO/EB staining based fluorescence microscopy; assay type: functional, cell-based
MGC-803 [10] = test: Induction of apoptosis in human MGC803 cells assessed as chromatin condensation at 1 to 10 uM after 12 hrs by AO/EB staining based fluorescence microscopy; assay type: functional, cell-based
Bcap37 [11] = test: Induction of apoptosis in human Bcap37 cells assessed as nuclear fragmentation at 1 to 10 uM after 12 hrs by AO/EB staining based fluorescence microscopy; assay type: functional, cell-based
MGC-803 [12] = test: Induction of apoptosis in human MGC803 cells assessed as nuclear fragmentation at 1 to 10 uM after 12 hrs by AO/EB staining based fluorescence microscopy; assay type: functional, cell-based
MGC-803 [13] = test: Induction of apoptosis in human MGC803 cells assessed as condensed chromatin at 1 to 10 uM after 12 hrs by Hoechst 33258 staining based fluorescence microscopy; assay type: functional, cell-based
Bcap37 [14] = test: Induction of apoptosis in human Bcap37 cells assessed as condensed chromatin at 1 to 10 uM after 12 hrs by Hoechst 33258 staining based fluorescence microscopy; assay type: functional, cell-based
Bcap37 [15] = test: Induction of apoptosis in human Bcap37 cells assessed as DNA fragmentation at 10 uM after 12 hrs by TUNEL assay; assay type: functional, cell-based
MGC-803 [16] = test: Induction of apoptosis in human MGC803 cells assessed as DNA fragmentation at 10 uM after 12 hrs by TUNEL assay; assay type: functional, cell-based
MGC-803 [17] = test: Induction of apoptosis in human MGC803 cells at 1 uM after 6 hrs by Annexin V-FITC staining based flow cytometry; assay type: functional
MGC-803 [18] = test: Induction of apoptosis in human MGC803 cells at 5 uM after 6 hrs by Annexin V-FITC staining based flow cytometry; assay type: functional
MGC-803 [19] = test: Induction of apoptosis in human MGC803 cells at 10 uM after 6 hrs by Annexin V-FITC staining based flow cytometry; assay type: functional
MGC-803 [20] = test: Induction of apoptosis in human MGC803 cells at 1 uM after 12 hrs by Annexin V-FITC staining based flow cytometry; assay type: functional
MGC-803 [21] = test: Induction of apoptosis in human MGC803 cells at 5 uM after 12 hrs by Annexin V-FITC staining based flow cytometry; assay type: functional
MGC-803 [22] = test: Induction of apoptosis in human MGC803 cells at 10 uM after 12 hrs by Annexin V-FITC staining based flow cytometry; assay type: functional
MGC-803 [23] = test: Induction of apoptosis in human MGC803 cells at 1 uM after 24 hrs by Annexin V-FITC staining based flow cytometry; assay type: functional
MGC-803 [24] = test: Induction of apoptosis in human MGC803 cells at 5 uM after 24 hrs by Annexin V-FITC staining based flow cytometry; assay type: functional
MGC-803 [25] = test: Induction of apoptosis in human MGC803 cells at 10 uM after 24 hrs by Annexin V-FITC staining based flow cytometry; assay type: functional
MGC-803 [26] = test: Induction of apoptosis in human MGC803 cells assessed as early apoptotic cell level at 10 uM after 12 hrs by AO/EB staining based fluorescence microscopy; assay type: functional
MGC-803 [27] = test: Induction of apoptosis in human MGC803 cells assessed as late apoptotic cell level at 10 uM after 12 hrs by AO/EB staining based fluorescence microscopy; assay type: functional
Bcap37 [28] = test: Induction of apoptosis in human Bcap37 cells assessed as early apoptotic cell level at 10 uM after 12 hrs by AO/EB staining based fluorescence microscopy; assay type: functional
Bcap37 [29] = test: Induction of apoptosis in human Bcap37 cells assessed as late apoptotic cell level at 10 uM after 12 hrs by AO/EB staining based fluorescence microscopy; assay type: functional
MGC-803 [30] = test: Induction of apoptosis in human MGC803 cells assessed as condensed chromatin at 10 uM after 12 hrs by Hoechst 33258 staining based fluorescence microscopy; assay type: functional, cell-based
Bcap37 [31] = test: Induction of apoptosis in human Bcap37 cells assessed as condensed chromatin at 10 uM after 12 hrs by Hoechst 33258 staining based fluorescence microscopy; assay type: functional, cell-based

Row | SMILES | inhibition of growth at 10 µM (MGC-803 [1]) [%] | inhibition of growth at 10 µM (Bcap37 [2]) [%] | inhibition of growth at 10 µM [3] [%] | IC50 (MGC-803 [4]) [µM] | IC50 (Bcap37 [5]) [µM] | IC50 [6] [µM] | also measured
1 | O=C(/C=C/c1ccc(Oc2ncnc3ccc(Cl)cc23)cc1)/C=C/c1ccc(Cl)c(Cl)c1 | 50.5 | 34.5 | 33.5 | 16.9 | 27.9 | 18.8 | –
2 | COc1cccc2c1C(=O)c1c(O)c3c(c(O)c1C2=O)C[C@@](O)(C(=O)CO)C[C@@H]3O[C@H]1C[C@H](N)[C@H](O)[C@H](C)O1 [DOXORUBICIN HYDROCHLORIDE] | 95.8 | 96.2 | 93.5 | 0.71 | 0.94 | 0.8 | –
3 | O=C(/C=C/c1ccc(Oc2ncnc3ccc(Cl)cc23)cc1)/C=C/c1cccc(Cl)c1Cl | 68.5 | 61.7 | 67.4 | 7.3 | 14.3 | 10.2 | –
4 | O=C(/C=C/c1ccc(Oc2ncnc3ccc(Cl)cc23)cc1)/C=C/c1cc([N+](=O)[O-])ccc1Cl | 86.7 | 72.5 | 76.8 | 2.15 | 9.84 | 3.15 | Activity (Bcap37 [7]): Active; Activity (MGC-803 [8]): Active; Activity (Bcap37 [9]): Active; Activity (MGC-803 [10]): Active; Activity (Bcap37 [11]): Active; Activity (MGC-803 [12]): Active; Activity (MGC-803 [13]): Active; Activity (Bcap37 [14]): Active; Activity (Bcap37 [15]): Active; Activity (MGC-803 [16]): Active; Activity (MGC-803 [17]): 1.2%; Activity (MGC-803 [18]): 1.7%; Activity (MGC-803 [19]): 4.2%; Activity (MGC-803 [20]): 1.8%; Activity (MGC-803 [21]): 5.6%; Activity (MGC-803 [22]): 8.9%; Activity (MGC-803 [23]): 4.3%; Activity (MGC-803 [24]): 9.8%; Activity (MGC-803 [25]): 21.9%
5 | O=C(/C=C/c1ccc(Cl)c(Cl)c1)/C=C/c1ccccc1Oc1ncnc2ccc(Cl)cc12 | 56.7 | 38.2 | 42.2 | 16.1 | 21.2 | 18.3 | –
6 | O=C(/C=C/c1ccccc1Oc1ncnc2ccc(Cl)cc12)/C=C/c1cccc(Cl)c1Cl | 76.5 | 70.2 | 73.8 | 5.21 | 11.5 | 8.35 | –
7 | O=C(/C=C/c1ccc(Oc2ncnc3ccc(Cl)cc23)cc1)/C=C/c1ccc(Cl)c([N+](=O)[O-])c1 | 66.2 | 56.3 | 56.3 | 7.19 | 16.2 | 11.8 | –
8 | O=C(/C=C/c1ccc(Cl)c([N+](=O)[O-])c1)/C=C/c1ccccc1Oc1ncnc2ccc(Cl)cc12 | 70.2 | 52.5 | 62.5 | 5.32 | 12.3 | 9.76 | –
9 | O=C(/C=C/c1ccc(Oc2ncnc3ccc(Cl)cc23)cc1)/C=C/c1c(Cl)cccc1Cl | 61.7 | 62.5 | 67.5 | 6.77 | 13.8 | 9.3 | –
10 | CC[C@@]1(O)C(=O)OCc2c1cc1n(c2=O)Cc2cc3cc(O)ccc3nc2-1 [HYDROXYCAMPTOTHECIN] | – | – | – | – | – | – | Activity (MGC-803 [26]): Active; Activity (MGC-803 [27]): Active; Activity (Bcap37 [28]): Active; Activity (Bcap37 [29]): Active; Activity (MGC-803 [30]): Active; Activity (Bcap37 [31]): Active; Activity (Bcap37 [15]): Active; Activity (MGC-803 [16]): Active; Activity (MGC-803 [17]): 1.3%; Activity (MGC-803 [18]): 1.8%; Activity (MGC-803 [19]): 3.5%; Activity (MGC-803 [20]): 2.1%; Activity (MGC-803 [21]): 6%; Activity (MGC-803 [22]): 9.1%; Activity (MGC-803 [23]): 3.8%; Activity (MGC-803 [24]): 7.3%; Activity (MGC-803 [25]): 18.6%
11 | O=C(/C=C/c1cc([N+](=O)[O-])ccc1Cl)/C=C/c1ccccc1Oc1ncnc2ccc(Cl)cc12 | 91.6 | 78.4 | 86.9 | 1.96 | 8.47 | 2.51 | Activity (Bcap37 [7]): Active; Activity (MGC-803 [8]): Active; Activity (Bcap37 [9]): Active; Activity (MGC-803 [10]): Active; Activity (Bcap37 [11]): Active; Activity (MGC-803 [12]): Active; Activity (MGC-803 [13]): Active; Activity (Bcap37 [14]): Active; Activity (Bcap37 [15]): Active; Activity (MGC-803 [16]): Active; Activity (MGC-803 [17]): 2%; Activity (MGC-803 [18]): 6.7%; Activity (MGC-803 [19]): 10.3%; Activity (MGC-803 [20]): 3.5%; Activity (MGC-803 [21]): 9.2%; Activity (MGC-803 [22]): 15.7%; Activity (MGC-803 [23]): 5.2%; Activity (MGC-803 [24]): 16.8%; Activity (MGC-803 [25]): 31.7%
12 | O=C(/C=C/c1ccccc1Oc1ncnc2ccc(Cl)cc12)/C=C/c1c(Cl)cccc1Cl | 69.3 | 67.1 | 70.1 | 5.17 | 11.3 | 7.98 | –
